From US9206191B2, “Indazoles for the treatment and prophylaxis of respiratory syncytial virus infection” (Hoffmann-La Roche Inc., priority 2012, dated 2015)

Each compound was assayed on RSV Long strain (assay: Viral Cytopathic Effect (CPE) Assay). Conditions: human respiratory syncytial virus, 144 h, cell viability after 6 days, Cell Counting kit-8.
Type: cell-based

EC50 [nM]	Compound
2	CS(=O)(=O)c1nn(Cc2nc3cc(Cl)ccc3n2[C@H]2CC[C@H](O)C2)c2cnccc12 (relative stereo) [Example 2-36, trans-3-(5-chloro-2-{[3-(methylsulfonyl)-1H-pyrazolo[3,4-c]pyridin-1-yl]methyl}-1H-benzimidazol-1-yl)cyclopentanol]
17.9	C[C@@]1(O)CC[C@H](n2c(Cn3nc(S(C)(=O)=O)c4ccncc43)nc3cc(Cl)ccc32)C1 (relative stereo) [Example 2-43, cis-3-(5-chloro-2-{[3-(methylsulfonyl)-1H-pyrazolo[3,4-c]pyridin-1-yl]methyl}-1H-benzimidazol-1-yl)-1-methylcyclopentanol]
8.99	CS(=O)(=O)c1nn(Cc2nc3cc(Cl)ccc3n2C2CCS(=O)(=O)C2)c2cnccc12 (stereo in doubt) [Example 2-1, 1-({5-Chloro-1-[(3R)-1,1-dioxidotetrahydrothiophen-3-yl]-1H-benzimidazol-2-yl}methyl)-3-(methylsulfonyl)-1H-pyrazolo[3,4-c]pyridine]
62.5	CS(=O)(=O)CCCn1c(Cn2cc(S(C)(=O)=O)c3ccccc32)nc2cc(Cl)ccc21 [Example 1-2, 5-Chloro-2-{[3-(methylsulfonyl)-1H-indol-1-yl]methyl}-1-[3-(methylsulfonyl)propyl]-1H-benzimidazole]
197	CS(=O)(=O)CCCn1c(Cn2cc(S(C)(=O)=O)c3cc(F)ccc32)nc2cc(Cl)ccc21 [Example 1-3, 5-Chloro-2-{[5-fluoro-3-(methylsulfonyl)-1H-indol-1-yl]methyl}-1-[3-(methylsulfonyl)propyl]-1H-benzimidazole]
82	CS(=O)(=O)CCCn1c(Cn2cc(S(C)(=O)=O)c3ccncc32)nc2cc(Cl)ccc21 [Example 1-4, 5-Chloro-1-[3-(methylsulfonyl)propyl]-2-{[3-(methylsulfonyl)-1H-pyrrolo[2,3-c]pyridin-1-yl]methyl}-1H-benzimidazole]
65	CCS(=O)(=O)c1cn(Cc2nc3cc(Cl)ccc3n2CCCS(C)(=O)=O)c2ccccc12 [Example 1-5, 5-Chloro-2-{[3-(ethylsulfonyl)-1H-indol-1-yl]methyl}-1-[3-(methylsulfonyl)propyl]-1H-benzimidazole]
119	CC(C)S(=O)(=O)c1cn(Cc2nc3cc(Cl)ccc3n2CCCS(C)(=O)=O)c2ccccc12 [Example 1-6, 5-Chloro-1-[3-(methylsulfonyl)propyl]-2-{[3-(propan-2-ylsulfonyl)-1H-indol-1-yl]methyl}-1H-benzimidazole]
227	CS(=O)(=O)CCCn1c(Cn2cc(S(=O)(=O)C3CC3)c3ccccc32)nc2cc(Cl)ccc21 [Example 1-7, 5-Chloro-2-{[3-(cyclopropylsulfonyl)-1H-indol-1-yl]methyl}-1-[3-(methylsulfonyl)propyl]-1H-benzimidazole]
16	CS(=O)(=O)CCCn1c(Cn2nc(S(C)(=O)=O)c3ccccc32)nc2cc(Cl)ccc21 [Example 1-8, 1-({5-Chloro-1-[3-(methylsulfonyl)propyl]-1H-benzimidazol-2-yl}methyl)-3-(methylsulfonyl)-1H-indazole]
74.4	CC(C)S(=O)(=O)c1nn(Cc2nc3cc(Cl)ccc3n2CCCS(C)(=O)=O)c2ccccc12 [Example 1-9, 1-({5-Chloro-1-[3-(methylsulfonyl)propyl]-1H-benzimidazol-2-yl}methyl)-3-(propan-2-ylsulfonyl)-1H-indazole]
37.8	CCS(=O)(=O)c1nn(Cc2nc3cc(Cl)ccc3n2CCCS(C)(=O)=O)c2ccccc12 [Example 1-10, 1-({5-Chloro-1-[3-(methylsulfonyl)propyl]-1H-benzimidazol-2-yl}methyl)-3-(ethylsulfonyl)-1H-indazole]
4.6	CS(=O)(=O)CCCn1c(Cn2nc(S(C)(=O)=O)c3ccncc32)nc2cc(Cl)ccc21 [Example 1-11, 1-({5-Chloro-1-[3-(methylsulfonyl)propyl]-1H-benzimidazol-2-yl}methyl)-3-(methylsulfonyl)-1H-pyrazolo[3,4-c]pyridine]
26.2	CS(=O)(=O)CCn1c(Cn2nc(S(C)(=O)=O)c3ccccc32)nc2cc(Cl)ccc21 [Example 1-12, 1-({5-Chloro-1-[2-(methylsulfonyl)ethyl]-1H-benzimidazol-2-yl}methyl)-3-(methylsulfonyl)-1H-indazole]
312	CC(C)S(=O)(=O)c1nn(Cc2nc3cc(Cl)ccc3n2CCS(C)(=O)=O)c2ccccc12 [Example 1-13, 1-({5-Chloro-1-[2-(methylsulfonyl)ethyl]-1H-benzimidazol-2-yl}methyl)-3-(propan-2-ylsulfonyl)-1H-indazole]
7.86	CS(=O)(=O)c1nn(Cc2nc3cc(Cl)ccc3n2C2CCS(=O)(=O)C2)c2ccccc12 (stereo not drawn) [Example 2-2, 1-{[5-Chloro-1-(1,1-dioxidotetrahydrothiophen-3-yl)-1H-benzimidazol-2-yl]methyl}-3-(methylsulfonyl)-1H-indazole]
21.8	CS(=O)(=O)c1nn(Cc2nc3cc(Cl)ccc3n2C2COC2)c2ccccc12 [Example 2-3, 1-{[5-Chloro-1-(oxetan-3-yl)-1H-benzimidazol-2-yl]methyl}-3-(methylsulfonyl)-1H-indazole]

EC50 [nM]	Compound
7.35	CS(=O)(=O)c1nn(Cc2nc3cc(Cl)ccc3n2C2CCNC(=O)C2)c2cnccc12 (stereo not drawn) [Example 2-4, 4-(5-Chloro-2-{[3-(methylsulfonyl)-1H-pyrazolo[3,4-c]pyridin-1-yl]methyl}-1H-benzimidazol-1-yl)piperidin-2-one]
22.4	CS(=O)(=O)c1nn(Cc2nc3cc(Cl)ccc3n2C2COC2)c2cnccc12 [Example 2-5, 1-{[5-Chloro-1-(oxetan-3-yl)-1H-benzimidazol-2-yl]methyl}-3-(methylsulfonyl)-1H-pyrazolo[3,4-c]pyridine]
21.8	CS(=O)(=O)c1nn(Cc2nc3cc(Cl)ccc3n2C2CCOCC2)c2ccccc12 [Example 2-6, 1-{[5-Chloro-1-(tetrahydro-2H-pyran-4-yl)-1H-benzimidazol-2-yl]methyl}-3-(methylsulfonyl)-1H-indazole]
7.72	CS(=O)(=O)c1nn(Cc2nc3cc(Cl)ccc3n2C2CCOCC2)c2cnccc12 [Example 2-7, 1-{[5-Chloro-1-(tetrahydro-2H-pyran-4-yl)-1H-benzimidazol-2-yl]methyl}-3-(methylsulfonyl)-1H-pyrazolo[3,4-c]pyridine]
36.1	CS(=O)(=O)c1nn(Cc2nc3cc(Cl)ccc3n2C2CCOC2)c2ccccc12 (stereo not drawn) [Example 2-8, 1-{[5-Chloro-1-(tetrahydrofuran-3-yl)-1H-benzimidazol-2-yl]methyl}-3-(methylsulfonyl)-1H-indazole]
6.97	CS(=O)(=O)c1nn(Cc2nc3cc(Cl)ccc3n2C2CCC(F)(F)C2)c2ccccc12 (stereo not drawn) [Example 2-9, 1-{[5-Chloro-1-(3,3-difluorocyclopentyl)-1H-benzimidazol-2-yl]methyl}-3-(methylsulfonyl)-1H-indazole]
14.3	CS(=O)(=O)c1nn(Cc2nc3cc(Cl)ccc3n2C2CCC(F)(F)C2)c2cnccc12 (stereo not drawn) [Example 2-10, 1-{[5-Chloro-1-(3,3-difluorocyclopentyl)-1H-benzimidazol-2-yl]methyl}-3-(methylsulfonyl)-1H-pyrazolo[3,4-c]pyridine]
8.2	CS(=O)(=O)c1nn(Cc2nc3cc(Cl)ccc3n2C2CCC(O)CC2)c2cnccc12 (stereo not drawn) [Example 2-11, 4-(5-Chloro-2-{[3-(methylsulfonyl)-1H-pyrazolo[3,4-c]pyridin-1-yl]methyl}-1H-benzimidazol-1-yl)cyclohexanol]
769	CS(=O)(=O)c1nn(Cc2nc3cc(Cl)ccc3n2C2CCC(O)C2)c2c[n+]([O-])ccc12 (stereo not drawn) [Example 2-12, 3-(5-Chloro-2-{[3-(methylsulfonyl)-6-oxido-1H-pyrazolo[3,4-c]pyridin-1-yl]methyl}-1H-benzimidazol-1-yl)cyclopentanol]
44.2	CS(=O)(=O)c1nn(Cc2nc3cc(Cl)ccc3n2C2CCNC2)c2cnccc12 (stereo not drawn) [Example 2-13, 1-{[5-Chloro-1-(pyrrolidin-3-yl)-1H-benzimidazol-2-yl]methyl}-3-(methylsulfonyl)-1H-pyrazolo[3,4-c]pyridine]
708	CS(=O)(=O)c1nn(Cc2nc3cc(Cl)ccc3n2C2CNC2)c2cnccc12 [Example 2-14, 1-{[1-(Azetidin-3-yl)-5-chloro-1H-benzimidazol-2-yl]methyl}-3-(methylsulfonyl)-1H-pyrazolo[3,4-c]pyridine]
591	CS(=O)(=O)c1nn(Cc2nc3cc(Cl)ccc3n2C2CCNCC2)c2ccccc12 [Example 2-15, 1-{[5-Chloro-1-(piperidin-4-yl)-1H-benzimidazol-2-yl]methyl}-3-(methylsulfonyl)-1H-indazole]
16.4	CC(=O)N1CCC(n2c(Cn3nc(S(C)(=O)=O)c4ccncc43)nc3cc(Cl)ccc32)C1 (stereo not drawn) [Example 2-16, 1-[3-(5-Chloro-2-{[3-(methylsulfonyl)-1H-pyrazolo[3,4-c]pyridin-1-yl]methyl}-1H-benzimidazol-1-yl)pyrrolidin-1-yl]ethanone]
10.9	CS(=O)(=O)c1nn(Cc2nc3cc(Cl)ccc3n2C2CCN(C(=O)CO)C2)c2cnccc12 (stereo not drawn) [Example 2-17, 1-[3-(5-Chloro-2-{[3-(methylsulfonyl)-1H-pyrazolo[3,4-c]pyridin-1-yl]methyl}-1H-benzimidazol-1-yl)pyrrolidin-1-yl]-2-hydroxyethanone]
36	CS(=O)(=O)c1nn(Cc2nc3cc(Cl)ccc3n2C2CCN(C(=O)CN)C2)c2cnccc12 (stereo not drawn) [Example 2-18, 2-Amino-1-[3-(5-chloro-2-{[3-(methylsulfonyl)-1H-pyrazolo[3,4-c]pyridin-1-yl]methyl}-1H-benzimidazol-1-yl)pyrrolidin-1-yl]ethanone]
1170	CS(=O)(=O)c1nn(Cc2nc3cc(Cl)ccc3n2[C@H]2CCN(CC(F)(F)F)C2)c2cnccc12 [Example 2-19, 1-({5-Chloro-1-[(3S)-1-(2,2,2-trifluoroethyl)pyrrolidin-3-yl]-1H-benzimidazol-2-yl}methyl)-3-(methylsulfonyl)-1H-pyrazolo[3,4-c]pyridine]
